# Data: publication PMC5650337, “A peptidomimetic with a chiral switch is an inhibitor of epidermal growth factor receptor heterodimerization” (Oncotarget, 2017)
# Like-named read-outs stand apart in the source and are kept apart here. Where a SMILES comes first, the peptide text is derived from it.
# Experiments:
# SKBR-3 cells [1] = system: SKBR-3 cells
# Method: (§1) Cellular assays were performed using BT-474, SKBR-3, Calu-3, MCF-7, and MCF-10A cells (ATCC). Antiproliferative activity was measured by CellTiter-Glo®, [49] a luminescence-based cell viability assay. In a 96-well plate, 1 × 10^4 cells/well were seeded and incubated overnight at 37°C and 5% CO2. Stock solutions of peptidomimetics were prepared by dissolving 1.5 mg/mL of compounds in DMSO. Stock solution of the compounds were diluted using the serum-free medium to prepare solutions of different concentrations of compounds. Compounds in the medium were added to the wells in triplicate and incubated for 72 h. As controls, cells treated with 1% sodium dodecyl sulfate and 1% dimethyl sulfoxide were used. At the end of the experiment, CellTiter-Glo® reagent was added, and luminescence was measured by a plate reader. A dose response curve was generated using luminescence vs concentration of compounds and IC50 values were obtained using Prism® (GraphPad Software, La Jolla, CA). Experiments were repeated at least three times to obtain standard deviation values.
# SKBR-3 cells [2] = system: SKBR-3 cells; set-up: method as in PMID 21887403, PMID 20919746, PMID 25346057, PMID 24222531, PMID 19703026; details: Table 2, compounds marked * reported earlier; read-out: Antiproliferative activity (IC50 µM) SKBR-3 cells; cited from earlier work
# MCF-7 cells = experiment: Antiproliferative activity (CellTiter-Glo); assay type: cell-based; details: breast cancer cells that do not overexpress HER2, 72 h
# From the text: Erlotinib was from Sigma (Sigma-Aldrich Chemie GmbH).
# BT-474 cells = details: read-out: IC50 BT-474 (+); HER2-overexpressing breast cancer cells, 72 h
# Method: as §1
# SKOV-3 cells = details: read-out: IC50 SKOV-3(+); HER2-overexpressing ovarian cancer cells, 72 h
# Method: as §1
# Calu-3 cells = details: read-out: IC50 Calu-3 (+); HER2-overexpressing lung cancer cells, 72 h
# Method: as §1
# [3] = target: T1, HER2 ECD (domains I to IV) (Homo sapiens, UniProt P04626); experiment: Surface plasmon resonance analysis; assay type: binding; details: protein immobilized on CM5 chip, substance as analyte
# T1 construct: Extracellular domains of proteins HER2, EGFR, HER3, and HER4 purchased from Leinco Technologies; purchased Leinco Technologies (St. Louis, MO)
# Method: Surface plasmon resonance analysis was performed using GE X100. Extracellular domains of proteins HER2, EGFR, HER3, and HER4 purchased from Leinco Technologies (St. Louis, MO). […] Compound 18 and controls were used as analytes. Compound 18 at different concentrations (0 to 200 µM) was passed through an SPR chip, and binding kinetics were analyzed for each of the EGFR bindings. A blank subtracted sensorgram for compound 18 was represented.
# [4] = target: T2, HER2:HER3 dimerization in transfected U2OS cells (Homo sapiens, UniProt P04626); experiment: Enzyme fragment complementation (PathHunter) assay; assay type: cell-based; details: for Inhibition of HER2:HER3 dimerization (PathHunter): in the presence of 0.3 µM NRG1
# T2 construct: host or cells: U2OS
# Method: A Pathhunter assay kit was obtained from DiscoverX, and enzyme fragment complementation assay was carried out. U2OS cells transfected with HER3:HER2 were used for the assay. After cells were attached to the wells, they were incubated with compound 18 and controls at different concentration in the presence of neuregulin-1 (NRG-1) at 0.3 µM concentration. After 24 h of incubation, reagents were added, and luminescence was measured and compared with a control without any compound. A plot of luminescence versus concentration was obtained to measure the dimerization of HER3:HER2 and its inhibition by compound 18.
# BT-474 breast tumors = experiment: Xenograft model of breast cancer; assay type: in vivo, athymic nude mice; details: BT-474 xenograft
# Method: All animals were handled according to the approved protocol from IACUC at the University of Louisiana at Monroe. Athymic nude mice (Foxn1nu/Foxn1+, female, 4–5 weeks) were purchased from Harlan Laboratories (Indianapolis, IN) and maintained in the ULM School of Pharmacy vivarium. After acclimatization of animals to the local environment, estrogen (17β-estradiol) pellets (0.72 mg, 90-day release) were implanted subcutaneously in the mice, under anesthesia. Tumors were induced in mice as described previously. Orthotopic injection of about three-million BT-474 cells suspended in the serum-free RPMI-1640 medium was done at the second left mammary fat pad. Mice were observed every day for tumor formation, and the tumor diameter was measured with calipers, and the tumor volume was calculated. When a tumor diameter of 3 mm was achieved, mice were randomly assigned to four groups of six. These groups contain negative control (vehicle control), positive control (lapatinib), and two treatment groups (compound 9 and 18). The mice were treated for 19 days. Compound 18 was administered near the base of the tumor at a dose of 4 mg/kg twice a week. Control groups received intratumor saline injections twice a week, and lapatinib was administered at 10 mg/kg once a week by intraperitoneal injection. The marker to end the experiments was based on tumor doubling time rather than tumor volume. Since tumor doubling time was 4 times in 19 days, experiments were stopped on the 19th day. Tumor-bearing mice were sacrificed, and three tumors per group were harvested and maintained at –80°C and the remaining three tumors were fixed in paraffin blocks. Microsections (5 µm) of paraffin fixed tumors were stained with hemotoxylin and eosin (H&E) and observed for necrosis by a pathologist. All data are presented as the mean ± SE. Statistical differences were evaluated by Mann-Whitney U test as well as one-way ANOVA analysis of data from different groups, and the criterion for statistical significance was p < 0.05.
# SKBR-3 cells [5] = experiment: cells; details: Homo sapiens, SK-BR-3, 72 h, read-out: IC50 SKBR-3(+)
# Method: as §1
# [6] = target: T3, HER2:HER3 heterodimerization in tumor sections (Homo sapiens, UniProt P04626); experiment: PLA on xenograft tumor sections; assay type: in vivo, athymic nude mice
# T3 construct: from tissue; host or cells: BT-474 xenograft tumours grown in athymic nude mice
# Method: Western blot and PLA assay were carried out on tumor sections as described before. Immunoblot analysis was performed to evaluate the levels of total HER2 and phosphorylated HER2. Tumor sections were deparaffinized using xylene and rehydrated with decreasing concentrations of ethanol. Antigen retrieval on the microsections of the breast tumors was done in a steaming sodium citrate buffer (10 mM, 0.05% Tween-20, pH 6.0) for 5 min. The tumor sections were then used to analyze inhibition of HER2:HER3 dimerization using PLA.
# [7] = read-out: Antiproliferative activity (IC50 µM) SKBR-3 cells, Table 2, compound 18 and diastereoisomers
molecule,measurement,setting,value
"N=C(N)NCCC[C@@H]1NC(=O)[C@H]2CCCN2C(=O)[C@@H]2CCCN2C(=O)[C@H](CCCNC(=N)N)NC(=O)C[C@@H](c2cccc3ccccc23)NC(=O)[C@H](Cc2ccccc2)NC(=O)[C@H](CC(=O)O)NC(=O)[C@H](CC(=O)O)NC(=O)[C@H](Cc2ccccc2)NC(=O)C[C@H](c2cccc3ccccc23)NC1=O [compound 18-2, Cyclo(1,10)P^1p^2R^3(R-Anapa)^4F^5D^6D^7F^8(S-Anapa)^9R^10] (HELM PEPTIDE1{P.[dP].R.[O=C(C[C@@H](N[*:1])c1cccc2ccccc12)[*:2]].F.D.D.F.[O=C(C[C@H](N[*:1])c1cccc2ccccc12)[*:2]].R}$PEPTIDE1,PEPTIDE1,1:R1-10:R2$$$V2.0)",IC50,SKBR-3 cells [1]; [7],0.743 ± 0.35 µM
"N=C(N)NCCC[C@@H]1NC(=O)[C@@H]2CCCN2C(=O)[C@H]2CCCN2C(=O)[C@H](CCCNC(=N)N)NC(=O)C[C@H](c2cccc3ccccc23)NC(=O)[C@H](Cc2ccccc2)NC(=O)[C@H](CC(=O)O)NC(=O)[C@H](CC(=O)O)NC(=O)[C@H](Cc2ccccc2)NC(=O)C[C@H](c2cccc3ccccc23)NC1=O [compound 18-5, Cyclo(1,10)p^1P^2R^3(R-Anapa)^4F^5D^6D^7F^8(R-Anapa)^9R^10] (HELM PEPTIDE1{[dP].P.R.[O=C(C[C@@H](N[*:1])c1cccc2ccccc12)[*:2]].F.D.D.F.[O=C(C[C@@H](N[*:1])c1cccc2ccccc12)[*:2]].R}$PEPTIDE1,PEPTIDE1,1:R1-10:R2$$$V2.0)",IC50,SKBR-3 cells [1]; [7],12.8 ± 1.9 µM
"Cyclo(1,10)GPR- (Anapa)FDEFWR [compound 20]",IC50,SKBR-3 cells [2],> 100 µM
"N=C(N)NCCC[C@@H]1NC(=O)[C@@H]2CCCN2C(=O)[C@H]2CCCN2C(=O)[C@H](CCCNC(=N)N)NC(=O)C[C@@H](c2cccc3ccccc23)NC(=O)[C@H](Cc2ccccc2)NC(=O)[C@H](CC(=O)O)NC(=O)[C@H](CC(=O)O)NC(=O)[C@H](Cc2ccccc2)NC(=O)C[C@@H](c2cccc3ccccc23)NC1=O [compound 18-4, Cyclo(1,10)p^1P^2R^3(S-Anapa)^4F^5D^6D^7F^8(S-Anapa)^9R^10] (HELM PEPTIDE1{[dP].P.R.[O=C(C[C@H](N[*:1])c1cccc2ccccc12)[*:2]].F.D.D.F.[O=C(C[C@H](N[*:1])c1cccc2ccccc12)[*:2]].R}$PEPTIDE1,PEPTIDE1,1:R1-10:R2$$$V2.0)",IC50,SKBR-3 cells [1]; [7],0.456 ± 0.13 µM
"H2N-K(3-amino-biphenyl propionic acid)F-OH [CP, reference compound]",IC50,"SKBR-3 cells [1]; read-out: IC50 SKBR-3(+), HER2-overexpressing breast cancer cells, 72 h",> 100 µM
same,IC50,MCF-7 cells,> 100000 nM
same,IC50,BT-474 cells,> 100000 nM
same,IC50,SKOV-3 cells,> 100000 nM
same,IC50,Calu-3 cells,> 100000 nM
same,SPR binding to HER2 ECD,[3],no SPR response was observed
same,Inhibition of HER2:HER3 dimerization (PathHunter),[4],did not inhibit HER2:HER3 dimerization
Ac-f(Anapa)r-NH2 [compound 21],IC50,SKBR-3 cells [2],0.373 ± 0.15 µM
same,Inhibition of HER2:HER3 dimerization (PathHunter),[4],shown to inhibit HER2:HER3 dimerization
neuregulin-1 [reference compound],Induction of HER2:HER3 dimerization (PathHunter),[4]; agonist dose-response,concentration dependence of induction of dimerization
NH2-Arg-Anapa-Phe-OH [compound 5],IC50,SKBR-3 cells [2],0.396 ± 0.022 µM
NH2-Arg-Anapa-Phe-Asp-OH [compound 9],Difference in delay of tumor growth between compound 18 and compound 9,BT-474 breast tumors; 4 mg/kg twice a week,not statistically significant
same,IC50,SKBR-3 cells [2],0.445 ± 0.032 µM
"N=C(N)NCCC[C@@H]1NC(=O)[C@H]2CCCN2C(=O)[C@@H]2CCCN2C(=O)[C@H](CCCNC(=N)N)NC(=O)C[C@H](c2cccc3ccccc23)NC(=O)[C@H](Cc2ccccc2)NC(=O)[C@H](CC(=O)O)NC(=O)[C@H](CC(=O)O)NC(=O)[C@H](Cc2ccccc2)NC(=O)C[C@@H](c2cccc3ccccc23)NC1=O [compound 18-1, Cyclo(1,10)P^1p^2R^3(S-Anapa)^4F^5D^6D^7F^8(R-Anapa)^9R^10] (HELM PEPTIDE1{P.[dP].R.[O=C(C[C@H](N[*:1])c1cccc2ccccc12)[*:2]].F.D.D.F.[O=C(C[C@@H](N[*:1])c1cccc2ccccc12)[*:2]].R}$PEPTIDE1,PEPTIDE1,1:R1-10:R2$$$V2.0)",IC50,SKBR-3 cells [1]; [7],> 50 µM
"N=C(N)NCCC[C@@H]1NC(=O)[C@H]2CCCN2C(=O)[C@@H]2CCCN2C(=O)[C@H](CCCNC(=N)N)NC(=O)C[C@@H](c2cccc3ccccc23)NC(=O)[C@H](Cc2ccccc2)NC(=O)[C@H](CC(=O)O)NC(=O)[C@H](CC(=O)O)NC(=O)[C@H](Cc2ccccc2)NC(=O)C[C@@H](c2cccc3ccccc23)NC1=O [compound 18-3, Cyclo(1,10)P^1p^2R^3(S-Anapa)^4F^5D^6D^7F^8(S-Anapa)^9R^10] (HELM PEPTIDE1{P.[dP].R.[O=C(C[C@H](N[*:1])c1cccc2ccccc12)[*:2]].F.D.D.F.[O=C(C[C@H](N[*:1])c1cccc2ccccc12)[*:2]].R}$PEPTIDE1,PEPTIDE1,1:R1-10:R2$$$V2.0)",IC50,SKBR-3 cells [1]; [7],41.1 ± 3.2 µM
"CS(=O)(=O)CCNCc1ccc(-c2ccc3ncnc(Nc4ccc(OCc5cccc(F)c5)c(Cl)c4)c3c2)o1 [Lapatinib, reference compound]",IC50,SKBR-3 cells [5],13 ± 3 nM
same,Tumor growth versus vehicle,"BT-474 breast tumors; 19 days, 18 and 9 4 mg/kg twice a week intratumor, lapatinib 10 mg/kg once a week i.p.",significant delay in tumor growth
same,HER2:HER3 heterodimerization in tumor sections (PLA),[6],red fluorescence due to dimerization of HER2:HER3
